The subject of test [1] is Ba/F3-Flt3-transfected cells in the presence of 10 ng/ml murine IL3. Put plainly: Ba/F3-Flt3 (plus IL3) cellular proliferation counterscreen, Alamar Blue. The class given is cell-based. The note with it: plus 10 ng/ml murine IL3; for IC50: Mus musculus, read-out: BAF3-FLT3 (PLUS IL3) 384 well pIC50 (converted). Background: A counterscreen serves to expose hits that act by an unwanted route or on another target.

A further test addresses FGFR1 (h) (Homo sapiens, UniProt P11362). The test can be described thus: FGFR1 (enzymatic assay), TR-FRET. The class given is biochemical. To be noted: read-out: FGFR 1 pIC50 (converted). The procedure: In a final reaction volume of 30 μL, FGFR1 (h) (25 ng/ml) was incubated with 50 mM HEPES pH 7.5, 6 mM MnCl2, 1 mM DTT, 0.1 mM Na3VO4, 0.01% Triton-X-100, 500 nM Btn-Flt3 and 5 μM ATP in the presence of compound (1% DMSO final). […] Time-Resolved Fluorescence Resonance Energy Transfer (TR-FRET) signal (ex340 nm. Em 620 nm, em 655 nm) was measured afterwards and results are expressed in RFU (Relative Fluorescence Units).
(TR-FRET usually uses a lanthanide donor and a delayed reading to cut background.)

For test [2], the system named is Ba/F3-FGFR3-transfected cells in the presence of 10 ng/ml murine IL3. Put plainly: Ba/F3-FGFR3 (plus IL3) cellular proliferation counterscreen, Alamar Blue. The class given is cell-based. To be noted: plus 10 ng/ml murine IL3, 384 well; for IC50: Mus musculus, read-out: BAF3-FGFR 3 (PLUS IL3) 384 well pIC50 (converted). In a few lines: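 FGFR3-Ba/F3 cells, 20000/well (384-well) or 10000/well (96-well), phenol red free RPMI + 10% FBS; cpd in DMSO; 24 h, 37 °C/5% CO2; Alamar Blue 4 h; RFU ex540/em590.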

Test [3] concerns Ba/F3-KDR-transfected cells in the presence of 10 ng/ml murine IL3. Put plainly: Ba/F3-KDR (plus IL3) cellular proliferation counterscreen, Alamar Blue. The class given is cell-based. To be noted: plus 10 ng/ml murine IL3; for IC50: Mus musculus, read-out: BAF3-KDR (PLUS IL3) 384 well pIC50 (converted). The procedure: Ba/F3-KDR (Minus IL3 or Plus IL3) (Cellular Proliferation Assay)
[…] Cells were put in an incubator at 37° C. and 5% CO2. After 24 hours, 10 μl of Alamar Blue solution (0.5 mM K3Fe(CN)6, 0.5 mM KaFe(CN)6, 0.15 mM Resazurin and 100 mM Phosphate Buffer) was added to the wells, incubated for 4 hours at 37° C. and 5% CO2 before RFU's (Relative Fluorescence Units) (ex. 540 nm., em. 590 nm.) were measured in a flurorescence plate reader.
As a counterscreen the same experiment was performed in the presence of 10 ng/ml murine IL3.
In a 96 well plate, 180 μl cell culture medium (phenol red free RPMI-1640, 10% FBS, 2 mM L-Glutamine and 50 μg/ml Gentamycin) containing 10000 cells per well of Ba/F3-KDR-transfected cells were pipette and 20 μl of compound dilution in DMSO was added. Cells were put in an incubator at 37° C. and 5% CO2. After 24 hours, 40 μl of Alamar Blue solution (0.5 mM K3Fe(CN)6, 0.5 mM KaFe(CN)6, 0.15 mM Resazurin and 100 mM Phosphate Buffer) was added to the wells, incubated for 4 hours at 37° C. and 5% CO2 RFU's (Relative Fluorescence Units) (ex. 540 nm., em. 590 nm.) were measured in a flurorescence plate reader.

Each structure is given as a SMILES string. Bounds are passed on as bounds.

FGFR1 (h), sequence (P11362 22-822): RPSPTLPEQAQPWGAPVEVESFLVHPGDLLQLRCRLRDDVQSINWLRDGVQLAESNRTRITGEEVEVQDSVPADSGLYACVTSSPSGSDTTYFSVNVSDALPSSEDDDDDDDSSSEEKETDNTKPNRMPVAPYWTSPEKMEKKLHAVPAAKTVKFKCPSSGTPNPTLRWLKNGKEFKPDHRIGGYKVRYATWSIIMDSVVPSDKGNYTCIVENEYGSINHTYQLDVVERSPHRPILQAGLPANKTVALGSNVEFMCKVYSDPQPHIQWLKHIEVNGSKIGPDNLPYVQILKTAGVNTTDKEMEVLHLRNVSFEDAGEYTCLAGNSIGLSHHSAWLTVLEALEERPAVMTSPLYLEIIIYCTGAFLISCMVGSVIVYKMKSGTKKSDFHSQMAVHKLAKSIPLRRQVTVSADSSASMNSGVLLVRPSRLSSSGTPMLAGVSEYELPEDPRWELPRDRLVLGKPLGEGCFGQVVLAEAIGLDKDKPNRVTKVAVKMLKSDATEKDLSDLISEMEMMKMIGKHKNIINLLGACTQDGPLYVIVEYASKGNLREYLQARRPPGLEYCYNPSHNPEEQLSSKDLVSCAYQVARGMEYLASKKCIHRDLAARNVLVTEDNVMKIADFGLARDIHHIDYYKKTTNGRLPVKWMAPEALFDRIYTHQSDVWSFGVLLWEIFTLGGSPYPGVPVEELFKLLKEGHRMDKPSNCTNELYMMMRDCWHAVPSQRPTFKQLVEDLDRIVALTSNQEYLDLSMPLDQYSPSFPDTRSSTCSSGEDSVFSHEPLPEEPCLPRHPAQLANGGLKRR

As for `COc1cc(OC)cc(N(CC(OC(C)=O)C(F)(F)F)c2ccc3ncc(-c4cccnc4)nc3c2)c1` (single isomer, unassigned) [Compound 45], in test [1], the IC50 was above 10000 nM.
In the case of `COc1cc(OC)cc(N(CCCO)c2ccc3ncc(-c4ccnc(C(=O)NCCCCN)c4)nc3c2)c1` [Compound 126], at FGFR1 (h), the IC50 is 19.5 nM.
As for `COc1cc(OC)cc(N(CCCNCC(F)(F)F)c2ccc3ncc(-c4ccc(N(C)C(=O)OC(C)(C)C)nc4)nc3c2)c1` [Compound 127], the IC50 was 257 nM at FGFR1 (h), above 10000 nM in test [2], above 10000 nM in test [1] and above 10000 nM in test [3].
With `CNC(=O)c1cc(-c2cnc3ccc(N(CCN4CCCC4CO)c4cc(OC)cc(OC)c4)cc3n2)ccn1` (stereo not shown) [Compound 109], the IC50 on FGFR1 (h) was 16.2 nM.
For the compound `CNCCN(c1cc(OC)cc(OC)c1)c1ccc2ncc(-c3ccc(NC(=O)OC(C)(C)C)nc3)nc2c1` [Compound 81], the IC50 at FGFR1 (h) is 10.2 nM.
Same read-out and setting: for `COc1cc(OC)cc(N(CCCO)c2ccc3ncc(-c4ccc(N(C)C(=O)OC(C)(C)C)nc4)nc3c2)c1` [Compound 125] the value was 34.7 nM.
`COc1cc(OC)cc(N(CCCO)c2ccc3ncc(-c4ccnc(NC(=O)OC(C)(C)C)c4)nc3c2)c1` [Compound 128]: the IC50 at FGFR1 (h) is 182 nM; in test [2] it was above 10000 nM; in test [1], above 10000 nM; in test [3], above 10000 nM.
Take `COc1cc(OC)cc(N(CC2CO2)c2ccc3ncc(-c4ccc(N)nc4)nc3c2)c1` (stereo not shown) [Compound 110]: the IC50 at FGFR1 (h) is 27.5 nM; in test [1], above 10000 nM.
For `COc1cc(OC)cc(N(CCO)c2ccc3ncc(-c4ccc(OC)nc4)nc3c2)c1` [Compound 111], the IC50 on FGFR1 (h) was 26.3 nM; in test [2], above 10000 nM; in test [1] it was above 10000 nM; in test [3] it was above 10000 nM.
In the case of `COc1cc(OC)cc(N(CCCO)c2ccc3ncc(-c4ccc(F)nc4)nc3c2)c1` [Compound 117], the IC50 is 20.4 nM on FGFR1 (h), above 10000 nM in test [2], above 10000 nM in test [1] and above 10000 nM in test [3].
`COc1cc(OC)cc(N(CCCO)c2ccc3ncc(-c4ccnc(N)c4)nc3c2)c1` [Compound 66]: the IC50 on FGFR1 (h) was 3.09 nM; in test [1], above 10000 nM.
On to `COc1cc(OC)cc(N(Cc2cccc(CN)n2)c2ccc3ncc(-c4ccc(N)nc4)nc3c2)c1` [Compound 51], for which the IC50 is 3.72 nM at FGFR1 (h), around 8130 nM in test [2], around 7080 nM in test [1] and above 10000 nM in test [3].
Regarding `COc1cc(OC)cc(N(CC(O)C(F)(F)F)c2ccc3ncc(-c4cccnc4)nc3c2)c1` (single isomer, unassigned) [Compound 53], the IC50 in test [1] is above 10000 nM.
Turning to `COc1cc(OC)cc(N(CCNC(C)C)c2ccc3ncc(-c4ccccc4)nc3c2)c1` [Compound 121], the IC50 on FGFR1 (h) is 1.17 nM.
Turning to `COc1cc(OC)cc(N(CC(O)CO)c2ccc3ncc(-c4ccc(N)nc4)nc3c2)c1` (stereo not shown) [Compound 74], the IC50 on FGFR1 (h) is 7.24 nM; in test [2], above 10000 nM; in test [1], above 10000 nM; in test [3], above 10000 nM.
On to `CNc1ccc(-c2cnc3ccc(N(CCCO)c4cc(OC)cc(OC)c4)cc3n2)cn1` [Compound 116], for which the IC50 at FGFR1 (h) was 7.24 nM; in test [2] it was above 10000 nM; in test [1], above 10000 nM; in test [3], above 10000 nM.
With `COc1cc(OC)cc(N(CCCO)c2ccc3ncc(-c4ccc(N5CCNCC5)nc4)nc3c2)c1` [Compound 48], the IC50 on FGFR1 (h) was 2.45 nM; in test [2], 5500 nM; in test [1], 4170 nM; in test [3], 5250 nM.
For `COc1cc(OC)cc(N(CCO)c2ccc3ncc(-c4ccccc4)nc3c2)c1` [Compound 120], the IC50 on FGFR1 (h) was 8.91 nM; in test [1], above 10000 nM.
Consider `COc1cc(OC)cc(N(CCO)c2ccc3ncc(-c4ccncc4)nc3c2)c1` [Compound 11], for which the IC50 on FGFR1 (h) was 8.13 nM; in test [2] it was above 10000 nM; in test [1] it was above 10000 nM; in test [3], above 10000 nM.
Regarding `COc1cc(OC)cc(N(CC2CC2)c2ccc3ncc(-c4ocnc4C)nc3c2)c1` [Compound 104], the IC50 was 389 nM on FGFR1 (h), above 10000 nM in test [2], above 10000 nM in test [1] and above 10000 nM in test [3].
Regarding `COc1cc(OC)cc(N(CCCO)c2ccc3ncc(-c4ccc(N5CCOCC5)nc4)nc3c2)c1` [Compound 124], the IC50 on FGFR1 (h) was 6.92 nM; in test [2] it was above 10000 nM; in test [1], above 10000 nM; in test [3], above 10000 nM.
Regarding `COc1cc(OC)cc(N(CCO)c2ccc3ncc(-c4cccnc4)nc3c2)c1` [Compound 9], the IC50 is 10 nM on FGFR1 (h), above 10000 nM in test [2], above 10000 nM in test [1] and above 10000 nM in test [3].
`COCCCN(c1cc(OC)cc(OC)c1)c1ccc2ncc(-c3ccn(C)c3)nc2c1` [Compound 3]: the IC50 at FGFR1 (h) was 7.76 nM; in test [2], above 10000 nM; in test [1], above 10000 nM; in test [3] it was above 10000 nM.
As to `CNC(=O)c1cc(-c2cnc3ccc(N(CCNC(C)C)c4cc(OC)cc(OC)c4)cc3n2)ccn1` [Compound 14], the IC50 is 6.17 nM at FGFR1 (h) and above 10000 nM in test [1].
On to `COc1cc(OC)cc(N(CCCO)c2ccc3ncc(-c4ccc(C)nc4)nc3c2)c1` [Compound 115], for which the IC50 at FGFR1 (h) was 15.8 nM.
Consider `COc1cc(OC)cc(N(CC(OC(C)=O)C(F)(F)F)c2ccc3ncc(-c4cccnc4)nc3c2)c1` (single isomer, unassigned) [Compound 75], for which the “BAF3-FGFR 3 (PLUS IL3) 384 well pIC50” value in test [2] is below 5. In test [1], the “BAF3-FLT3 (PLUS IL3) 384 well pIC50” value is below 5. Further, the “BAF3-KDR (PLUS IL3) 384 well pIC50” value in test [3] was below 5.
For `COc1cc(OC)cc(N(CCNC(C)C)c2ccc3ncc(-c4ccn(C)c4)nc3c2)c1` [Compound 8], the IC50 on FGFR1 (h) is 0.457 nM; in test [1], above 10000 nM.
In the case of `COc1cc(OC)cc(N(CCCO)c2ccc3ncc(-c4ccnc(C(=O)NCCCN)c4)nc3c2)c1` [Compound 33], the IC50 was 12.6 nM at FGFR1 (h) and above 10000 nM in test [1].
For `CNC(=O)c1cc(-c2cnc3ccc(N(CCCNCC(F)(F)F)c4cc(OC)cc(OC)c4)cc3n2)ccn1` [Compound 122] the same measures were 83.2 nM and above 10000 nM.
In the case of `COc1cc(OC)cc(N(CC(O)C(F)(F)F)c2ccc3ncc(-c4cccnc4)nc3c2)c1` (single isomer, unassigned) [Compound 54], in test [2], the “BAF3-FGFR 3 (PLUS IL3) 384 well pIC50” value was below 5. Further, in test [1], the “BAF3-FLT3 (PLUS IL3) 384 well pIC50” value was below 5. For the same compound, the “BAF3-KDR (PLUS IL3) 384 well pIC50” value in test [3] was below 5.
For the compound `COc1cc(OC)cc(N(CC2CC2)c2ccc3ncc(-n4cnc(CO)c4)nc3c2)c1` [Compound 105], on FGFR1 (h), the IC50 is 28.2 nM.
On the same count and under the same terms, for `COc1cc(OC)cc(N(CCO)c2ccc3ncc(-c4ccc(N)nc4)nc3c2)c1` [Compound 106] the value was 5.43 nM.
For `COc1cc(OC)cc(N(CCNC(C)C)c2ccc3ncc(-c4ccc(N)nc4)nc3c2)c1` [Compound 17], the IC50 at FGFR1 (h) was 1.23 nM; in test [1], above 9550 nM.
For the compound `CNC(=O)OCCN(c1cc(OC)cc(OC)c1)c1ccc2ncc(-c3ccc(NC(=O)OC(C)(C)C)nc3)nc2c1` [Compound 80], the IC50 on FGFR1 (h) is 398 nM; in test [1], above 10000 nM.
Turning to `CNC(=O)c1cc(-c2cnc3ccc(N(CCNCC(F)(F)F)c4cc(OC)cc(OC)c4)cc3n2)ccn1` [Compound 113], the IC50 at FGFR1 (h) is 85.1 nM.
On to `CNC(=O)c1cc(-c2cnc3ccc(N(CCN4CCCC4=O)c4cc(OC)cc(OC)c4)cc3n2)ccn1` [Compound 25], for which the IC50 is 468 nM on FGFR1 (h) and above 10000 nM in test [1].
For `COc1cc(OC)cc(N(CCNC(C)C)c2ccc3ncc(-c4cccnc4)nc3c2)c1` [Compound 10] the same measures were 2.75 nM and 9330 nM.

(Values after US10052320B2, “Substituted quinoxalines as FGFR kinase inhibitors” (ASTEX THERAPEUTICS LIMITED, priority 2011, dated 2018).)
